Measured values published in US20240226117A1, “TREATMENT OF CONGENITAL ADRENAL HYPOPLASIA” (ReveraGen BioPharma, Inc., priority 2021, published 2024).

Legend:
DMD participants [1] = assay: Prespecified safety evaluation: height percentile for age and BMI z-score; assay type: in vivo, human
Experimental: As with the […] comparators, group-matching criteria were prespecified in the iSAP, and 2 independent statisticians carried out the participant matching. […] There was no corresponding 12-month assessment in vamorolone-treated participants. (Assessments of vamorolone-treated trial participants were 0, 3, 6, and 18 months). Standing height and weight were assessed at each study visit. Height z-score, body mass index (BMI: kg/m^2), and BMI z-score were calculated centrally. AE reporting was done per protocol in the vamorolone trials. The current study is the first to evaluate the longer-term tolerability, efficacy, and safety of vamorolone in DMD. […] Given the variable timing of dose escalations, it was prespecified that initial analyses of drug-related efficacy and safety would be limited to those participants who had 18 months of treatment with 2.0 mg/kg/day vamorolone or more (dose group C+dose group D: n=23). Outcomes for these participants were compared to a group-matched cohort from the […] over 18 months (corticosteroid-naïve, n=19: corticosteroid-treated, n=68). Participants were matched for age and treatment period (+1 month), matching criteria were prespecified in the statistical analysis plan. Two independent statisticians carried out the matching. […] Participants in the corticosteroid-treated […] group were treated for at least 18 months, but the total duration, dose, and regimens varied. Statistical analyses were done on paired longitudinal outcome data using an analysis of covariance (ANCOVA) approach with change from baseline (VBP15-002) to month 18 (midpoint of VBP15-LTE). Baseline response and age were included as covariates. For the vamorolone-treated participants, age was calculated as (date of informed consent minus birthdate)/365.25. For the DNHS participants, age was calculated as (date of baseline visit used minus birthdate)/365.25. The baseline visit for a DNHS participant was the first visit. […] Timed function tests were analyzed as velocity scores to limit the impact of participants who could not perform the test (velocity=0). Velocity measures are variance-stabilizing transformations, suppressing extreme raw outliers from raw values in seconds; these help with distributional assumptions of the statistical models/tests used. Raw data (seconds) are also reported. Velocity scores for […] (event/second), TTRW (meters/second), and […] (event/second) were inputted as 0 at the first response missing due to inability to perform the test. All other data were observed values only, without imputation. No adjustments for multiplicity on inferential statistics were specified in the iSAP.

DMD participants [2] = assay: Physician-reported adverse events in vamorolone trials and published corticosteroid studies; assay type: in vivo, human
Experimental: Study visits took place quarterly, including assessment of clinical laboratory results, vital signs, and AEs. All AEs were coded using the Medical Dictionary for Regulatory Activities (MedDRA version 19.0) system for reporting (preferred term and system organ class). Clinical efficacy assessments were performed at baseline of the VBP15-002 study, at six months (end of VBP15-003 study), and the 12-month midpoint visit of the VBP15-LTE study.
Treatment-emergent AEs (TEAEs) have been published for the 2-week treatment MAD study (VBP15-002) and the 24-week dose-finding extension study (VBP15-003). TEAEs were reported with similar incidence by participants in all four vamorolone groups.
A Data and Safety Monitoring Board report on the VBP15-LTE study covering all participants enrolled in the VBP15-LTE study (inclusive beyond the 12-month midpoint assessment) included three serious AEs (2 myoglobinuria events [in the same participant] and one pneumonia), all deemed unrelated to study drug. For all reported TEAEs, 402 were deemed unrelated to vamorolone, 37 were deemed remotely related, 29 were deemed possibly related, 11 were deemed probably related, and three were deemed definitely related. Of the 14 AEs probably and definitely related to vamorolone, 10 were weight gain, 2 were increased appetite, 1 was Cushingoid features, and 1 was irritability.
The incidences of physician-reported AEs typically for corticosteroid treatment were determined for participants that had been treated with vamorolone 6.0 mg/kg/day (for any duration), taken from the March 2019 Data Safety Update Report (DSUR) (pharmacovigilance report). Incidence rates of Cushingoid features, weight gain, hirsutism, and behavior change were studied (Table 8).

[3] = 18 months, vamorolone 2.0 or 6.0 mg/kg/day, DNHS corticosteroid doses and regimens varied
[4] = vamorolone 18 months versus corticosteroid-naïve DNHS, ANCOVA
[5] = 6.0 mg/kg/day vamorolone (any duration), n = 38, DSUR 13 Mar. 2019

C[C@@H]1C[C@H]2[C@@H]3CCC4=CC(=O)C=C[C@]4(C)C3=CC[C@]2(C)[C@@]1(O)C(=O)CO [Vamorolone, 17α,21-dihydroxy-16α-methylpregna-1,4,9(11)-triene-3,20-dione]
Mean BMI z-score, 18-month value (SD) (DMD participants [1]; [3]): 1.46 (0.62)
Mean BMI z-score, change from baseline (SD) (DMD participants [1]; [3]): 0.411 (0.615)
Mean height percentile for age, 18-month value (SD) (DMD participants [1]; [3]): 35.24 (29.82)
Mean BMI z-score, change from baseline (SD) (DMD participants [1]; 18 months, vamorolone 2.0 or 6.0 mg/kg/day, DNHS corticosteroid doses and regimens varied, listed as vamorolone): 0.41
LS Mean change in height percentiles for age (DMD participants [1]; DMD children treated with vamorolone, N = 22, 18 months treatment): +6.9
BMI change from baseline to 18 months of treatment (DMD participants [1]; original dose group B (0.75 mg/kg/day, escalated in LTE)): 0.5 kg/m^2
BMI change from baseline to 18 months of treatment (DMD participants [1]; original dose group C (2.0 mg/kg/day)): 1.11 kg/m^2
BMI change from baseline to 18 months of treatment (DMD participants [1]; original dose group D (6.0 mg/kg/day)): 2.55 kg/m^2
Mean height percentile for age, LS mean difference (SE) (DMD participants [1]; vamorolone 18-month treatment versus prednisone trial 12-month treatment, ANCOVA): 10.37
Mean BMI z-score, LS mean difference (SE) (DMD participants [1]; [4]): 0.899 (0.204)
Mean height percentile for age, LS mean difference (SE) (DMD participants [1]; [4]): 6.72 (3.48)
growth stunting (mean change in height percentile versus corticosteroid-treated DNHS) (DMD participants [1]; vamorolone treatment group): no evidence of growth stunting
Mean height percentile for age, LS mean difference (SE) (DMD participants [1]; vamorolone versus corticosteroid-treated DNHS, 18 months, ANCOVA): 15.86
Incidence of physician-reported Cushingoid (DMD participants [2]; [5]): 2.6%
Incidence of physician-reported behavior change (DMD participants [2]; [5]): 0%^2
Incidence of physician-reported hypertrichosis/hirsutism (DMD participants [2]; [5]): 0%
Incidence of physician-reported weight gain (DMD participants [2]; [5]): 13.2%
Cushingoid features among the 14 AEs probably and definitely related (DMD participants [2]; VBP15-LTE): 1
increased appetite among the 14 AEs probably and definitely related (DMD participants [2]; VBP15-LTE): 2
irritability among the 14 AEs probably and definitely related (DMD participants [2]; VBP15-LTE): 1
weight gain among the 14 AEs probably and definitely related (DMD participants [2]; VBP15-LTE): 10
TEAEs deemed definitely related (DMD participants [2]; VBP15-LTE, all reported TEAEs): three
TEAEs deemed possibly related (DMD participants [2]; VBP15-LTE, all reported TEAEs): 29
TEAEs deemed probably related (DMD participants [2]; VBP15-LTE, all reported TEAEs): 11
TEAEs deemed remotely related (DMD participants [2]; VBP15-LTE, all reported TEAEs): 37
TEAEs deemed unrelated to vamorolone (DMD participants [2]; VBP15-LTE, all reported TEAEs): 402
serious AEs in VBP15-LTE (Data and Safety Monitoring Board report) (DMD participants [2]; all LTE participants, all deemed unrelated to study drug): three
safety and tolerability over the 24-week treatment period (VBP15-003) (DMD participants [2]; oral, all doses tested (0.25, 0.75, 2.0, 6.0 mg/kg/day)): safe and well-tolerated
